From patent publication US20220386611A1, “NOVEL HETEROARYL-TRIAZOLE COMPOUNDS AS PESTICIDES” (Bayer Aktiengesellschaft, priority 2019, published 2022) come the findings set out here.

As a reminder, the mortality is the share of the test organisms that died.

Holding throughout (assay type): in vivo
Assay [1] has as its system adult brown dog ticks (Rhipicephalus sanguineus). Description: Rhipicephalus sanguineus in-vitro contact test with adult brown dog ticks. The following applies: 5 μg/cm^2 (=500 g/ha), after 48 hours, read-out: efficacy (ticks dead or moribund). The method, boiled down: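 Contact exposure: dried compound film inside glass tubes, dose 5 μg/cm^2 at 900 ppm, 5-10 adults per tube at room temperature. Scored at 48 h via a heat-escape test on a 45-50° C plate for up to 5 min.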

The test system of assay [2] is green peach aphid (Myzus persicae). Briefly: Myzus persicae oral test. The following applies: 120 h. The method, boiled down:
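Compound in acetone was diluted with water, and 50 μL was mixed with 150 μL IPL41 insect medium (33% + 15% sugar). A mixed aphid population fed on this through a parafilm seal. Mortality % was scored after 5 days, where 100% means all aphids were killed.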

Assay [3] concerns adult cat fleas (Ctenocephalides felis). Description: Ctenocephalides felis in-vitro contact test, adult cat flea. The following applies: after 48 hours, read-out: efficacy (fleas dead or moribund); for pest or weed control at 1 µg/cm2, 100 g/ha: 1 μg/cm^2 (=100 g/ha); for pest or weed control at 5 µg/cm2, 500 g/ha: 5 μg/cm^2 (=500 g/ha). The method, boiled down:
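Compound in acetone coated onto glass tube inner walls (900 ppm giving 5 μg/cm^2); after drying, 5-10 adult fleas added and held at room temperature. After 48 h, fleas heat-stressed at 45-50° C for up to 5 min; immotile or uncoordinated fleas scored dead/moribund, giving % efficacy.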

For assay [4], the system named is fall armyworm larvae (Spodoptera frugiperda). Description: Spodoptera frugiperda spray test. The following applies: in Zea mays, 168 h.
Assay [5] deals with Musca domestica strain WHO-N. Description: Musca domestica test (MUSCDO surface treatment & contact assay). Conditions: 24 hours after contact, read-out: efficacy (mortality); for mortality at 20 mg/m2: surface concentration 20 mg/m^2, 30 minutes exposure.
Assay [6] relates to larvae of the banded cucumber beetle (Diabrotica balteata). Briefly: Diabrotica balteata spray test. Conditions: 168 h, 100 g/ha (=32 μg/well), after 7 days, wheat seeds, read-out: efficacy (seedlings grown like untreated, uninfected control). The method, boiled down:
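Germinated wheat seedlings sprayed with compound in acetone/DMF with emulsifier-containing water, then infested with 10-20 Diabrotica balteata larvae per unit. Efficacy scored after 7 days as seedling growth relative to untreated, uninfested control (100%) versus no growth (0%).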

Assay [7] relates to Aedes aegypti strain MONHEIM. Briefly: Aedes aegypti test (AEDSAE surface treatment & contact assay). Conditions: 24 hours after contact, read-out: efficacy (mortality); for mortality at 4 mg/m2: surface concentration 4 mg/m^2, 30 minutes exposure; for mortality at 20 mg/m2: surface concentration 20 mg/m^2, 30 minutes exposure. The method, boiled down:
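Compound dissolved in acetone (2 mg/ml) with 2000 ppm rapeseed oil methyl ester, then dried onto a glazed tile. Adult A. aegypti (MONHEIM strain) exposed to the surface for 30 min. Percent mortality scored 24 h after contact.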

For `CC(NC(=O)c1cc(C(F)(F)F)cc(C(F)(F)F)c1)c1nc(Cl)nn1-c1ncccn1` (stereo not shown) [Example I-002], the pest or weed control at 5 µg/cm2, 500 g/ha in assay [1] was 80%. The mortality at 4 ppm in assay [2] stood at 100%. Besides, the pest or weed control at 1 µg/cm2, 100 g/ha in assay [3] is 100%. Besides, in assay [4], the mortality at 100 g/ha worked out at 100%. In addition, the mortality at 20 mg/m2 in assay [5] was 80 to 100%. In assay [6], the pest or weed control at 32 µg/disc, 100 g/ha was 100%. In addition, in assay [7], the mortality at 4 mg/m2 lay within 80 to 100% and the mortality at 20 mg/m2 fell in the range of 80 to 100%.

On to `CC(NC(=O)c1cc(C(F)(F)F)cc(C(F)(F)F)c1)c1nc(Br)nn1-c1ncccn1` (stereo not shown) [Example I-010], for which the figures for the pest or weed control at 5 µg/cm2, 500 g/ha in assay [1] and in assay [3] were 100% and 80%, respectively. The compound also registered a mortality at 4 ppm in assay [2] of 100%. The compound further displayed a mortality at 100 g/ha in assay [4] of 100%. Also, the mortality at 20 mg/m2 in assay [5] and in assay [7] was 80 to 100% in each case. For the same compound, the pest or weed control at 32 µg/disc, 100 g/ha in assay [6] amounted to 80%.

For the compound `CC(NC(=O)c1cc(C(F)(F)F)cc(C(F)(F)F)c1)c1nc(I)nn1-c1ncccn1` (stereo not shown) [Example I-021], the pest or weed control at 5 µg/cm2, 500 g/ha in assay [1] turned out to be 80%; in assay [3], 100%. For the same compound, the mortality at 4 ppm in assay [2] worked out at 100%. Further, the pest or weed control at 1 µg/cm2, 100 g/ha in assay [3] worked out at 100%. The compound further returned a mortality at 100 g/ha in assay [4] of 100%. Besides, the mortality at 4 mg/m2 lay in the range of 80 to 100% in assay [5] (surface concentration 4 mg/m^2, 30 minutes exposure) and 80 to 100% in assay [7]. The mortality at 20 mg/m2 in assay [5] and in assay [7] was 80 to 100% each time. For the same compound, the pest or weed control at 32 µg/disc, 100 g/ha in assay [6] worked out at 100%.
